From patent publication US20220062243A1, “P14-Kinase Inhibitors with Anti-Cancer Activity” (The Board of Trustees of the Leland Stanford Junior …, priority 2019, published 2022)

Molecular target: PI4K-IIIβ (Homo sapiens, UniProt Q9UBF8)
Experiment: PI-kinase assay (membrane capture assay for lipid kinase activity), PI4KIIIβ
Assay type: biochemical
Settings: read-out: PI4KIIIβ kinase activity (IC50 class)
Method: PI4-kinase inhibition can be determined by a kinase activity assay, e.g., by an assay that determines the level of incorporation of radiolabeled phosphate from [γ-^32P]-ATP into a substrate molecule after treatment with a subject compound, relative to a control, by measuring the beta-particle emission rate using a scintillation counter or phosphorimaging.
PI-kinase assay: Compounds are tested in C.1.1. PI kinase assays as described by Shokat et al., “A membrane capture assay for lipid kinase activity.” Nat. Protoc. […] Selected compounds of Table 1 and 2 were prepared and tested for inhibition activity in a variety of kinase assays.

Sequence of PI4K-IIIβ (Q9UBF8 whole entry): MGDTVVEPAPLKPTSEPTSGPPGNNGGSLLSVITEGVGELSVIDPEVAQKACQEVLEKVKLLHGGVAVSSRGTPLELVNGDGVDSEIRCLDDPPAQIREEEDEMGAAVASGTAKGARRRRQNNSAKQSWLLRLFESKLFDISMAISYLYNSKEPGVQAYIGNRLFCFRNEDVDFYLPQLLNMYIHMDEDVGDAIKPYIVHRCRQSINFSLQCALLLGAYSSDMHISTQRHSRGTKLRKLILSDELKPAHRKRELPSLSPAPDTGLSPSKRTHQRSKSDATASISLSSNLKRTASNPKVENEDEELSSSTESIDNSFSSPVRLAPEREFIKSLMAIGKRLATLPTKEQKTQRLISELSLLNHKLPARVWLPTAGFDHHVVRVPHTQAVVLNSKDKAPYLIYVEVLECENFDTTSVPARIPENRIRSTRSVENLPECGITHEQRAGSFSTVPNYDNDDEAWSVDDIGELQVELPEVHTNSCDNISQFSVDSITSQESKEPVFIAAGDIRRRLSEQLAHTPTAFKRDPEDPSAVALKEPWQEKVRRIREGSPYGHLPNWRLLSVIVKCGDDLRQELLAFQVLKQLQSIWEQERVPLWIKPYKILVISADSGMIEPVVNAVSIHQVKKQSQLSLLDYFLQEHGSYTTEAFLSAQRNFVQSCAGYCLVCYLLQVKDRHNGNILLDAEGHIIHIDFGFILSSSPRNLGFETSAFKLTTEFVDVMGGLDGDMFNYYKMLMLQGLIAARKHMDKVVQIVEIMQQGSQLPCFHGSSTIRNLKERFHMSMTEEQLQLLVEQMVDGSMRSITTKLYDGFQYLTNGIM

| IC50 [µM] | Compound |
| --- | --- |
| < 0.1 | COc1ccc(-c2sc(N[C@H](C)CC3CCCCC3)nc2C)cc1S(=O)(=O)NC1CCNCC1 [Compound S-145, 5-[2-[[(1R)-2-cyclohexyl-1-methyl-ethyl]amino]-4-methyl-thiazol-5-yl]-2-methoxy-N-(4-piperidyl)benzenesulfonamide] |
| < 0.1 | COc1ccc(-c2sc(N[C@H](C)C3CCCCC3)nc2C)cc1S(=O)(=O)NC1CCNCC1 [Compound S-147, 5-[2-[[(1R)-1-cyclohexylethyl]amino]-4-methyl-thiazol-5-yl]-2-methoxy-N-(4-piperidyl)benzenesulfonamide] |
| < 0.1 | COc1ccc(-c2sc(N[C@H](C)C3CCCCC3)nc2C)cc1S(=O)(=O)NC1CCCNC1 (stereo partly drawn) [Compound S-148, 5-[2-[[(1R)-1-cyclohexylethyl]amino]-4-methyl-thiazol-5-yl]-2-methoxy-N-(3-piperidyl)benzenesulfonamide] |
| < 0.1 | COc1ccc(-c2sc(NC(=O)CC3CCCC3)nc2C)cc1S(=O)(=O)N[C@H]1CC[C@H](O)CC1 [Compound S-151, 2-cyclopentyl-N-[5-[3-[(4-hydroxycyclohexyl)sulfamoyl]-4-methoxy-phenyl]-4-methyl-thiazol-2-yl]acetamide] |
| < 0.1 | COc1ccc(-c2sc(NC(=O)CC3CCCC3)nc2C)cc1S(=O)(=O)NCCCCO [Compound S-152] |
| < 0.1 | COc1ccc(-c2sc(NC(=O)CC3CCCC3)nc2C)cc1S(=O)(=O)N1CC[C@@H](O)C1 [Compound S-153, 2-cyclopentyl-N-[5-[3-[(3R)-3-hydroxypyrrolidin-1-yl]sulfonyl-4-methoxy-phenyl]-4-methyl-thiazol-2-yl]acetamide] |
| < 0.1 | COc1ccc(-c2sc(NC(=O)CCC3CCCC3)nc2C)cc1S(=O)(=O)N[C@H]1CC[C@H](O)CC1 [Compound S-156, 3-cyclopentyl-N-[5-[3-[(4-hydroxycyclohexyl)sulfamoyl]-4-methoxy-phenyl]-4-methyl-thiazol-2-yl]propanamide] |
| < 0.1 | COc1ccc(-c2sc(NC(=O)CCC3CCCC3)nc2C)cc1S(=O)(=O)NC1CCNCC1 [Compound S-160, 3-cyclopentyl-N-[5-[4-methoxy-3-(4piperidylsulfamoyl)phenyl]-4-methyl-thiazol-2-yl]propanamide] |
| < 0.1 | COc1ccc(-c2sc(NC3CCCCC3)nc2C)cc1S(=O)(=O)N[C@H]1CC[C@H](O)CC1 [Compound S-166, 5-[2-(cyclohexylamino)-4-methyl-thiazol-5-yl]-N-(4-hydroxycyclohexyl)-2-methoxy-benzenesulfonamide] |
| < 0.1 | COc1ccc(-c2sc(NC3CCCCC3)nc2C)cc1S(=O)(=O)N[C@H]1CC[C@@H](O)CC1 [Compound S-167, 5-[2-(cyclohexylamino)-4-methyl-thiazol-5-yl]-N-(4-hydroxycyclohexyl)-2-methoxy-benzenesulfonamide] |
| < 0.1 | COc1ccc(-c2sc(NC(=O)CC3CCOCC3)nc2C)cc1S(=O)(=O)Nc1cc(C)cc(O)c1 [Compound S-169, N-[5-[3-[(3-hydroxy-5-methyl-phenyl)sulfamoyl]-4-methoxy-phenyl]-4-methyl-thiazol-2-yl]-2-tetrahydropyran-4-yl-acetamide] |
| < 0.1 | COc1ccc(-c2sc(NC(=O)CC3CCOCC3)nc2C)cc1S(=O)(=O)Nc1ccc(F)cc1 [Compound S-170, N-[5-[3-[(4-fluorophenyl)sulfamoyl]-4-methoxy-phenyl]-4-methyl-thiazol-2-yl]-2-tetrahydropyran-4-yl-acetamide] |
| < 0.1 | COc1ccc(-c2sc(NC(=O)CC3CCCC3)nc2C)cc1S(=O)(=O)NC1CCCNC1 (stereo not shown) [Compound S-173, 2-cyclopentyl-N-[5-[4-methoxy-3-(3piperidylsulfamoyl)phenyl]-4-methyl-thiazol-2-yl]acetamide;2,2,2-trifluoroacetic acid] |
| < 0.1 | COc1ccc(-c2sc(N[C@@H](C)C3CCCCC3)nc2C)cc1S(=O)(=O)N[C@H]1CC[C@H](O)CC1 [Compound S-183, 5-[2-[[(1S)-1-cyclohexylethyl]amino]-4-methyl-thiazol-5-yl]-N-(4-hydroxycyclohexyl)-2-methoxy-benzenesulfonamide] |
| < 0.1 | Cc1ccc(-c2sc(NC(=O)CC3CCCC3)nc2C)cc1S(=O)(=O)NC1CCNCC1 [Compound S-188, 2-cyclopentyl-N-[4-methyl-5-[4-methyl-3-(4-piperidylsulfamoyl)phenyl]thiazol-2-yl]acetamide] |
| < 0.1 | Cc1ccc(-c2sc(NC(=O)CC3CCCC3)nc2C)cc1S(=O)(=O)NC1CCCNC1 (stereo not shown) [Compound S-189, 2-cyclopentyl-N-[4-methyl-5-[4-methyl-3-(3-piperidylsulfamoyl)phenyl]thiazol-2-yl]acetamide] |
| < 0.1 | COc1ccc(-c2sc(N[C@H](C)C3CCCCC3)nc2C)cc1S(=O)(=O)N[C@H]1CC[C@H](O)CC1 [Compound S-193, 5-[2-[[(1R)-1-cyclohexylethyl]amino]-4-methyl-thiazol-5-yl]-N-(4-hydroxycyclohexyl)-2-methoxy-benzenesulfonamide] |
| < 0.1 | COc1ccc(-c2sc(N[C@H](C)C3CCCCC3)nc2C)cc1S(=O)(=O)N[C@@H]1CCNC1 [Compound S-197, 5-[2-[[(1R)-1-cyclohexylethyl]amino]-4-methyl-thiazol-5-yl]-2-methoxy-N-[(3R)-pyrrolidin-3-yl]benzenesulfonamide] |
| 0.1 to 1 | COc1ccc(-c2sc(N[C@H](C)C3CCCCC3)nc2C)cc1S(=O)(=O)N[C@H]1CC[C@@H](O)CC1 [Compound S-198, 5-[2-[[(1R)-1-cyclohexylethyl]amino]-4-methyl-thiazol-5-yl]-N-(4-hydroxycyclohexyl)-2-methoxy-benzenesulfonamide] |
| < 0.1 | COc1ccc(-c2sc(NCC3CCCCC3)nc2C)cc1S(=O)(=O)NC1CCCC(O)C1 (stereo not shown) [Compound S-199, 5-[2-(cyclohexylmethylamino)-4-methyl-thiazol-5-yl]-N-(3-hydroxycyclohexyl)-2-methoxy-benzenesulfonamide] |
| < 0.1 | COc1ccc(-c2sc(N[C@H](C)C3CCCCC3)nc2C)cc1S(=O)(=O)N[C@H]1CCNC1 [Compound S-201, 5-[2-[[(1R)-1-cyclohexylethyl]amino]-4-methyl-thiazol-5-yl]-2-methoxy-N-[(3S)-pyrrolidin-3-yl]benzenesulfonamide] |
| < 0.1 | COc1ccc(-c2sc(NCCC3CCCCC3)nc2C)cc1S(=O)(=O)NC1CCNCC1 [Compound S-202, 5-[2-(2-cyclohexylethylamino)-4-methyl-thiazol-5-yl]-2-methoxy-N-(4-piperidyl)benzenesulfonamide] |
| 1 to 10 | COc1ccc(-c2sc(N[C@@H](C)C3CCCCC3)nc2C)cc1S(=O)(=O)N[C@H]1CC[C@@H](O)CC1 [Compound S-206, 5-[2-[[(1S)-1-cyclohexylethyl]amino]-4-methyl-thiazol-5-yl]-N-(4-hydroxycyclohexyl)-2-methoxy-benzenesulfonamide] |
| 0.1 to 1 | COc1ccc(-c2sc(NCCC3CCCCC3)nc2C)cc1S(=O)(=O)NC1CCC(O)C1 (stereo not shown) [Compound S-214, 5-[2-(2-cyclohexylethylamino)-4-methyl-thiazol-5-yl]-N-(3-hydroxycyclopentyl)-2-methoxy-benzenesulfonamide] |
| < 0.1 | COc1ccc(-c2sc(NC(C)C)nc2C)cc1S(=O)(=O)N[C@H]1CC[C@H](O)CC1 [Compound S-215, N-(4-hydroxycyclohexyl)-5-[2-(isopropylamino)-4-methyl-thiazol-5-yl]-2-methoxy-benzenesulfonamide] |
